Data as given in patent publication US10647702B2, “Aryl-substituted imidazoles” (St. Jude Children's Research Hospital, priority 2010, dated 2020).

Assays:
[1] = Liver microsomal stability, mouse; type: in vitro ADME; conditions: for mouse liver microsome t(½): female CD-1 mouse liver microsomes, 37° C.; for CLint scaled at 19.8 µM: female, CD-1, mouse, liver microsomes, pH 7.4, intrinsic clearance calculated from t1/2, read-out: mouse liver microsome CLint′
Method: (§1) 1.582 mL of mouse liver microsome (20 mg/mL, female CD-1 mice, pooled, Fisher Scientific, # NC9567486) was mixed with 0.127 ml of 0.5M EDTA solution and 48.3 ml potassium phosphate buffer (0.1M, pH 7.4, 37° C.) to make 50 ml of mouse liver microsome solution. Human liver microsomal solution was made with human liver microsome (50 pooled mix gender, Fisher Scientific #50-722-516) the same way. 1 volume of 10 mM DMSO compound stock was mixed with 4 volume of acetonitrile to make 2 mM diluted compound stock in DMSO and acetonitrile. 37.83 μL, diluted compound stock was added to 3 mL liver microsomal solution and vortexed to make microsomal solution with compound. 1 ml of liver microsomal solution with compound is added to each well of a master storage plate (pION Inc., MA, #110323). All compounds are in triplicates. Mouse and human liver microsomes were tested side by side on the same plate. 175 μL of each well was dispensed from the master plate into 5 storage plates. For 0 hour time point, 450 pit pre-cooled (4° C.) internal standard (10 μM warfarin in methanol) was added to the first plate before the reaction starts. 5.25 ml of microsome assay solution A (Fisher Scientific, # NC9255727) was combined with 1.05 ml of solution B (Fisher Scientific, # NC9016235) in 14.7 ml of potassium phosphate buffer (0.1 M, pH 7.4). 45 μL of this A+B solution was added to each well of all the 96-well storage plates and mixed with pipette briefly. The plates are sealed, and all plates except 0-hr plate were incubated at 37° C., shaken at a speed of 60 rpm. 0.5 hr, 1 hr, 2 hr and 4 hr time points were taken. At each time point, 450 μL pre-cooled internal standard was added to the plate to quench the reaction. The quenched plate was then centrifuged (model 5810R, Eppendorf, Westbury, N.Y.) at 4000 rpm for 15 minutes. 150 μL supernatant was transferred to a 96-well plate and analyzed by UPLC-MS (Waters Inc., Milford, Mass.). The compounds and internal standard were detected by SIR. The log peak area ratio (compound peak area/internal standard peak area) was plotted vs time (hr) and the slope was determined to calculate the elimination rate constant [k=(−2.303)*slope]. The half life (hr) was calculated as t (1/2)=0.693/k. Intrinsic clearance was calculated as CLint′=(0.693/(t1/2))*(1/microsomal concentration in the reaction solution)*(45 mg microsome/gram liver)*(gram liver/kg b.w.), where microsomal concentration in the reaction solution is 0.5 mg/ml, and gram liver/kg b.w. of CD-1 female mice and human are 52 and 20, respectively.

[2] = Liver microsomal stability, human; type: in vitro ADME; conditions: for CLint scaled at 19.8 µM: both sexes, human, liver microsomes, pH 7.4, intrinsic clearance calculated from t1/2, read-out: Human liver microsome CLint′; for human liver microsome t(½): pooled human liver microsomes, 37° C.
Method: as §1

[3] = Plasma stability, pooled human plasma; type: in vitro ADME; conditions: 37° C., up to 48 hr
Method: (§2) Compound stocks were 10 mM in DMSO. The internal standard was 10 μM warfarin in methanol. 1.9 ml mouse plasma (Fisher Scientific, catalog #: NC9050370) or pooled human plasma (Innovative Research Inc., catalog # IPLA-1) was added to the columns of 1, 4, 7 and 10 of a 2 ml 96-well deep well plate (pION Inc., MA, #110023); this was the master plate. 1.9 μl compound stock was added to each well with plasmas and mixed well. Using a multi-channel pipette, 600 μl from the columns of 1, 4, 7 and 10 were taken and added into the rest of the columns (fluids in column 1 added to columns 2 and 3, column 4 into 5 and 6, and so on). From the master plate, 65 μl were taken from each well and added into 8 storage plates (pION Inc., MA, #110323), each for a time point. The storage plates was then incubated at 37° C. and shaken at 60 rpm. Samples were taken at 0 min, 30 min, 1 hr, 2 hr, 4 hr, 8 hr, 24 hr and 48 hr. At each time point, 195 μl internal standard was added to quench the reaction. The plates were then centrifuged at 4000 rpm for 15 min and supernatant was analyzed by UPLC-MS. The compound was detected by SIR and quantitation was based on peak area ratio of test compound vs. the internal standard.

[4] = Plasma stability, mouse plasma; type: in vitro ADME; conditions: 37° C., up to 48 hr
Method: as §2

[5] = PBS stability; type: physicochemical; conditions: PBS pH 7.4, 37° C., up to 48 hr
Method: as §2, with “ml PBS (Mediatech Inc., Manassas, Va.,” for “ml mouse plasma (Fisher Scientific,”, “catalog #21-040-CM)” for “catalog #: NC9050370) or pooled human plasma (Innovative Research Inc., catalog # IPLA-1)”, “with […]” for “with plasmas”, “65 pil” for “65 μl”

Compound | mouse liver microsome t(½) [1] [h] | CLint scaled at 19.8 µM [1] [mL/min/kg] | CLint scaled at 19.8 µM [2] [mL/min/kg] | human liver microsome t(½) [2] [h] | hPlasma stability t(½) [3] [h] | mPlasma stability t(½) [4] [h] | PBS pH 7.4 stability t(½) [5] [hr]
COc1ccc(C2=N[C@@H](c3cccc(Cl)c3)[C@@H](c3ccc(Cl)cc3)N2C(=O)N2CCNC(=O)C2)c(OC(C)C)c1 [SJ000558295-1] | 2.17 | 24.9 | 12.1 | 1.72 | >48 | >48 | >48
COc1ccc(C2=NC(c3cccc(C)c3)C(c3ccc(Cl)cc3)N2C(=O)N2CCNC(=O)C2)c(OC(C)C)c1 (centres unmarked) [SJ000558304-1] | 0.73 | 73.9 | 14.2 | 1.46 | >48 | >48 | >48
